Measurements: PubChem BioAssay (NCI)
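GI50 is the concentration that inhibits growth by half. At the TGI there is no net growth.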

What was measured:
Test in all cases: NCI anticancer screen, dose series, 384-well format
[1] = test system: 786-0 renal
[2] = test system: A498 renal
[3] = test system: A549 NSCLC
[4] = test system: ACHN renal
[5] = test system: BT-549 breast
[6] = test system: CAKI-1 renal
[7] = test system: CCRF-CEM leukemia
[8] = test system: DU-145 prostate
[9] = test system: EKVX NSCLC
[10] = test system: HCT-116 colon
[11] = test system: HCT-15 colon
[12] = test system: HL-60(TB) leukemia
[13] = test system: HOP-62 NSCLC
[14] = test system: HOP-92 NSCLC
[15] = test system: HS 578T breast
[16] = test system: HT29 colon
[17] = test system: IGROV1 ovarian
[18] = test system: K-562 leukemia
[19] = test system: KM12 colon
[20] = test system: LOX IMVI melanoma
[21] = test system: M14 melanoma
[22] = test system: MALME-3M melanoma
[23] = test system: MCF7 breast
[24] = test system: MDA-MB-231 breast
[25] = test system: MDA-MB-435 melanoma
[26] = test system: MDA-MB-468 breast
[27] = test system: NCI-H226 lung
[28] = test system: NCI-H23 lung
[29] = test system: NCI-H322M lung
[30] = test system: NCI-H522 lung
[31] = test system: NCI/ADR-RES ovarian
[32] = test system: OVCAR-3 ovarian
[33] = test system: OVCAR-4 ovarian
[34] = test system: OVCAR-5 ovarian
[35] = test system: OVCAR-8 ovarian
[36] = test system: PC-3 prostate
[37] = test system: RPMI-8226 leukemia
[38] = test system: RXF 393 renal
[39] = test system: SF-268 CNS
[40] = test system: SF-295 CNS
[41] = test system: SF-539 CNS
[42] = test system: SK-MEL-2 melanoma
[43] = test system: SK-MEL-28 melanoma
[44] = test system: SK-OV-3 ovarian
[45] = test system: SN12C renal
[46] = test system: SNB-19 CNS
[47] = test system: SNB-75 CNS
[48] = test system: SW-620 colon
[49] = test system: T-47D breast
[50] = test system: TK-10 renal
[51] = test system: U251 glioblastoma
[52] = test system: UACC-257 melanoma
[53] = test system: UACC-62 melanoma
[54] = test system: UO-31 renal
[55] = test system: COLO 205 colon
[56] = test system: HCC-2998 colon
[57] = test system: MOLT-4 leukemia
[58] = test system: NCI-H460 NSCLC
[59] = test system: SK-MEL-5 melanoma
[60] = test system: SR leukemia

## COc1cc([C@@H]2c3cc4c(cc3[C@@H](OC3OC5CO[C@@H](c6cccs6)OC5C(O)C3O)[C@H]3COC(=O)[C@H]23)OCO4)cc(OC)c1O (stereo partly drawn)
[1]
  GI50: 0.197 µM
  TGI: 1.18 µM
[2]
  GI50: 0.206 µM
  TGI: 3.51 µM
[3]
  GI50: 0.173 µM
  TGI: 4.08 µM
[4]
  GI50: 0.296 µM
  TGI: 1.71 µM
[5]
  GI50: 0.0758 µM
  TGI: 0.537 µM
[6]
  GI50: 0.224 µM
  TGI: 4.46 µM
[7]
  TGI: 0.0219 µM
[8]
  GI50: 0.212 µM
  TGI: 1.21 µM
[9]
  GI50: 3.01 µM
  TGI: 28.7 µM
[10]
  GI50: 0.0678 µM
  TGI: 2.02 µM
[11]
  GI50: 0.17 µM
  TGI: 1.39 µM
[12]
  TGI: 0.0116 µM
[13]
  GI50: 0.0741 µM
  TGI: 0.267 µM
[14]
  GI50: 0.321 µM
  TGI: 8.75 µM
[15]
  GI50: 0.0624 µM
  TGI: 0.703 µM
[16]
  GI50: 0.236 µM
  TGI: 1.23 µM
[17]
  GI50: 1.35 µM
  TGI: 10 µM
[18]
  GI50: 0.154 µM
  TGI: 1.42 µM
[19]
  GI50: 0.113 µM
  TGI: 1.35 µM
[20]
  GI50: 0.169 µM
  TGI: 1.57 µM
[21]
  GI50: 0.16 µM
  TGI: 1.15 µM
[22]
  GI50: 0.671 µM
  TGI: 3.97 µM
[23]
  GI50: 0.0828 µM
  TGI: 12.2 µM
[24]
  GI50: 0.171 µM
  TGI: 0.599 µM
[25]
  GI50: 0.756 µM
  TGI: 2.43 µM
[26]
  GI50: 0.138 µM
  TGI: 0.35 µM
[27]
  GI50: 0.311 µM
  TGI: 8.81 µM
[28]
  GI50: 0.0771 µM
  TGI: 0.664 µM
[29]
  GI50: 3.25 µM
  TGI: 14.3 µM
[30]
  GI50: 0.198 µM
  TGI: 1.53 µM
[31]
  GI50: 63.7 µM
  TGI: > 100 µM
[32]
  GI50: 0.348 µM
  TGI: 2.07 µM
[33]
  GI50: 3.42 µM
  TGI: 17.4 µM
[34]
  GI50: 0.395 µM
  TGI: 2.41 µM
[35]
  GI50: 0.151 µM
  TGI: 1.47 µM
[36]
  GI50: 1.39 µM
  TGI: 5.76 µM
[37]
  TGI: 0.161 µM
[38]
  GI50: 0.685 µM
  TGI: 2.51 µM
[39]
  GI50: 0.134 µM
  TGI: 1.35 µM
[40]
  GI50: 0.103 µM
  TGI: 0.49 µM
[41]
  GI50: 0.0959 µM
  TGI: 0.56 µM
[42]
  GI50: 0.567 µM
  TGI: 0.89 µM
[43]
  GI50: 0.321 µM
  TGI: 1.97 µM
[44]
  GI50: 0.326 µM
  TGI: 2.67 µM
[45]
  GI50: 0.139 µM
  TGI: 0.665 µM
[46]
  GI50: 0.219 µM
  TGI: > 100 µM
[47]
  GI50: 0.327 µM
  TGI: 1.78 µM
[48]
  GI50: 0.0449 µM
  TGI: 1.35 µM
[49]
  GI50: 0.146 µM
  TGI: 27.3 µM
[50]
  GI50: 0.825 µM
  TGI: 2.24 µM
[51]
  GI50: 0.0674 µM
  TGI: 1.2 µM
[52]
  GI50: 2.85 µM
  TGI: 13.1 µM
[53]
  GI50: 0.103 µM
  TGI: 1.8 µM
[54]
  GI50: 4 µM
  TGI: 17.5 µM

## CC(C)Oc1ccc(-c2nn([C@@H](C)c3oc4ccc(F)cc4c(=O)c3-c3cccc(F)c3)c3ncnc(N)c23)cc1F
[1]
  GI50: 26.2 µM
  TGI: > 100 µM
[2]
  GI50: 8.65 µM
  TGI: > 100 µM
[3]
  GI50: 11.1 µM
  TGI: > 100 µM
[4]
  GI50: > 86.8 µM
  TGI: > 100 µM
[5]
  GI50: 10.3 µM
  TGI: > 100 µM
[6]
  GI50: > 100 µM
  TGI: > 100 µM
[7]
  GI50: 3.62 µM
  TGI: > 83.9 µM
[55]
  GI50: > 100 µM
  TGI: > 100 µM
[8]
  GI50: > 100 µM
  TGI: > 100 µM
[9]
  GI50: > 100 µM
  TGI: > 100 µM
[56]
  GI50: > 100 µM
  TGI: > 100 µM
[10]
  GI50: 13.9 µM
  TGI: > 100 µM
[11]
  GI50: 32.5 µM
  TGI: > 100 µM
[12]
  GI50: 5.31 µM
  TGI: > 36 µM
[13]
  GI50: > 100 µM
  TGI: > 100 µM
[14]
  GI50: 8.09 µM
  TGI: > 80.9 µM
[16]
  GI50: > 100 µM
  TGI: > 100 µM
[17]
  GI50: > 100 µM
  TGI: > 100 µM
[18]
  GI50: 5.18 µM
  TGI: > 100 µM
[19]
  GI50: > 100 µM
  TGI: > 100 µM
[20]
  GI50: > 100 µM
  TGI: > 100 µM
[21]
  GI50: > 100 µM
  TGI: > 100 µM
[22]
  GI50: > 100 µM
  TGI: > 100 µM
[23]
  GI50: 9.51 µM
  TGI: > 100 µM
[24]
  GI50: 9.94 µM
  TGI: > 100 µM
[25]
  GI50: > 100 µM
  TGI: > 100 µM
[26]
  GI50: 5.71 µM
  TGI: > 83.7 µM
[57]
  GI50: 3.51 µM
  TGI: > 100 µM
[27]
  GI50: 51.5 µM
  TGI: > 100 µM
[28]
  GI50: 38.5 µM
  TGI: > 100 µM
[29]
  GI50: > 100 µM
  TGI: > 100 µM
[58]
  GI50: 10.5 µM
  TGI: > 100 µM
[30]
  GI50: 12.9 µM
  TGI: > 100 µM
[31]
  GI50: 19.5 µM
  TGI: > 100 µM
[32]
  GI50: 12.1 µM
  TGI: > 100 µM
[33]
  GI50: 6.49 µM
  TGI: > 100 µM
[34]
  GI50: > 100 µM
  TGI: > 100 µM
[35]
  GI50: 11.8 µM
  TGI: > 100 µM
[36]
  GI50: 7.27 µM
  TGI: > 100 µM
[37]
  GI50: 3.34 µM
  TGI: 9.04 µM
[38]
  GI50: 2.45 µM
  TGI: 11.5 µM
[39]
  GI50: > 100 µM
  TGI: > 100 µM
[40]
  GI50: > 100 µM
  TGI: > 100 µM
[41]
  GI50: 20.3 µM
  TGI: > 100 µM
[42]
  GI50: > 100 µM
  TGI: > 100 µM
[43]
  GI50: > 100 µM
  TGI: > 100 µM
[59]
  GI50: > 29.3 µM
  TGI: > 100 µM
[44]
  GI50: > 100 µM
  TGI: > 100 µM
[45]
  GI50: > 100 µM
  TGI: > 100 µM
[46]
  GI50: > 100 µM
  TGI: > 100 µM
[47]
  GI50: 33.5 µM
  TGI: > 100 µM
[60]
  GI50: 2.84 µM
  TGI: 14.9 µM
[48]
  GI50: > 90.1 µM
  TGI: > 100 µM
[49]
  GI50: 6.03 µM
  TGI: > 100 µM
[50]
  GI50: > 100 µM
  TGI: > 100 µM
[51]
  GI50: 88.8 µM
  TGI: > 100 µM
[52]
  GI50: > 100 µM
  TGI: > 100 µM
[53]
  GI50: > 100 µM
  TGI: > 100 µM
[54]
  GI50: 1.94 µM
  TGI: 7.54 µM
